The subject of experiment [1] is CD30+ parental DEL lymphoma cell line. Put plainly: In vitro cytotoxicity, CellTiter-Glo 96 h, DEL. It is filed as cell-based. The settings on record: Table 2, CD30+ parental DEL. As to the method: (§1) The parental DEL lymphoma cell line was cultured in the presence of brentuximab vedotin to induce over-expression of the MDR phenotype, resulting in the DEL brentuximab vedotin resistant line (DEL-BVR). Brentuximab vedotin, which is Ag2-vc-MMAE (DAR=4) was included as a control. Ex_4-1 refers to MP-PEG4-VKG-7-MAD-MDCPT.
Background: In ATP-based viability assays light output follows the ATP content of the culture.

Experiment [2] concerns CD30/MDR+ DEL-BVR cell line (DEL brentuximab vedotin resistant). As to the kind of experiment: In vitro cytotoxicity, CellTiter-Glo 96 h, DEL-BVR. The class given is cell-based. The settings on record: Table 2, CD30/MDR+ DEL-BVR. Here is the method:
as §1

The test system of experiment [3] is melanoma cells (SK-MEL-5). As to the kind of experiment: In vitro cytotoxicity, CellTiter-Glo 96 h, SK-MEL-5. Particulars: Homo sapiens, SK-MEL-5, read-out: Cytotoxic potency as free drug, IC50, SK-MEL-5.
Description: (§2) In vitro potency was assessed on multiple cancer cell lines. All cell lines were authenticated by STR profiling at IDEXX Bioresearch and cultured for no more than 2 months after resuscitation. Cells cultured in log-phase growth were seeded for 24 hours in 96-well plates containing 150 μl RPMI 1640 supplemented with 20% FBS. Serial dilutions of antibody-drug conjugates in cell culture media were prepared at 4× working concentrations, and 50 μl of each dilution was added to the 96-well plates. Following addition of test articles, cells were incubated with test articles for 4 days at 37° C. After 96 hours, growth inhibition was assessed by CellTiter-Glo® (Promega, Madison, Wis.) and luminescence was measured on a plate reader.
(§3) Cell viability was determined by CellTiter-Glo staining after 96 h exposure to ADC. […] Ag1 is an antibody targeting a ubiquitous and readily internalizable antigen on cancer cells, Ag2 is cAC10 antibody targeting CD30(+) cancer cells, Ag3 is h1F6 antibody targeting CD70(+) cancer cells, Ag4 is hMEM102 antibody targeting CD48(+) cancer cells, Ag5 is h20F3 antibody targeting NTB-A expressing cancer cells, and h00 is a non-binding control antibody.
For experiment [4], the system named is B-lymphocyte cancer cells (SU-DHL-4). Put plainly: In vitro cytotoxicity, CellTiter-Glo 96 h, SU-DHL-4. The settings on record: Homo sapiens, SU-DHL-4, read-out: Cytotoxic potency as free drug, IC50, SU-DHL-4.
For experiment [5], the system named is multiple drug resistant acute promyelocytic leukemia cells (HL-60/RV). As to the kind of experiment: In vitro cytotoxicity, CellTiter-Glo 96 h, HL60/RV. The settings on record: Homo sapiens, HL-60, read-out: Cytotoxic potency (IC50 class), HL60/RV.
Description: as §2
(§4) Cell viability was determined by CellTiter-Glo staining after 96 h exposure to ADC.
Experiment [6] deals with acute myeloid leukemia cells (MOLM13). As to the kind of experiment: In vitro cytotoxicity, CellTiter-Glo 96 h, MOLM13. Particulars: Homo sapiens, MOLM-13, read-out: Cytotoxic potency as free drug, IC50, MOLM13.
Description: as §2, §4
The subject of experiment [7] is acute promyelocytic leukemia cells (HL-60). Put plainly: In vitro cytotoxicity, CellTiter-Glo 96 h, HL-60. Particulars: Homo sapiens, HL-60, read-out: Cytotoxic potency (IC50 class), HL-60.
Experiment [8] has as its system Hodgkin's lymphoma cells (L540cy). Put plainly: In vitro cytotoxicity, CellTiter-Glo 96 h, L540cy. The settings on record: read-out: Cytotoxic potency (IC50 class), L540cy.
Description: as §2, §4
Experiment [9] has as its system Burkitt's lymphoma cells (Ramos). As to the kind of experiment: In vitro cytotoxicity, CellTiter-Glo 96 h, Ramos. The settings on record: Homo sapiens, read-out: Cytotoxic potency as free drug, IC50, Ramos.
Description: as §2, §4
Experiment [10] has as its system B-lymphocyte cancer cells (U266). Put plainly: In vitro cytotoxicity, CellTiter-Glo 96 h, U266. The settings on record: Homo sapiens, U-266, read-out: Cytotoxic potency as free drug, IC50, U266.
Experiment [11] concerns multiple myeloma cells (MM.1R). As to the kind of experiment: In vitro cytotoxicity, CellTiter-Glo 96 h, MM.1R. Particulars: read-out: Cytotoxic potency (IC50 class), MM.1R.
Description: as §2, §3
Experiment [12] deals with renal carcinoma cells (786-O). As to the kind of experiment: In vitro cytotoxicity, CellTiter-Glo 96 h, 786-O. The settings on record: Homo sapiens, 786-0, read-out: Cytotoxic potency (IC50 class), 786-O.
Description: as §2, §4
Experiment [13] concerns pancreatic cancer cells (BxPC3). Put plainly: In vitro cytotoxicity, CellTiter-Glo 96 h, BxPC3. The settings on record: Homo sapiens, BXPC-3, read-out: Cytotoxic potency (IC50 class), BxPC3.
Description: as §2, §4
Where [14] appears, read: 1000 ng/mL, relative to untreated cells.
The mark [15] stands for this setting: DAR in parenthesis of label, 96 h.

“Brentuximab vedotin [Ag2-vcMMAE (4), reference compound]”: in experiment [1] (setting [14]), the “percent cells remaining at highest concentration tested, DEL” value was “(1) percent”. The “IC50, DEL” value in experiment [1] (setting [15]) came out at 0.0005 mg/L. In experiment [2] (setting [14]), the “percent cells remaining at highest concentration tested, DEL-BVR” value was “(93) percent”. Further, the “IC50, DEL-BVR” value in [2] (setting [15]) was more than 1 mg/L.

Consider `CCc1c2c(nc3ccc(O)cc13)-c1cc3c(c(=O)n1C2)COC(=O)[C@]3(O)CC` [Compound 8d], for which the IC50 was in the range of 0.001 to 0.01 µM in [3]; 0.001 to 0.01 µM in [4]; 0.01 to 0.1 µM in [5]; 0.001 to 0.01 µM in experiment [6]; 0.001 to 0.01 µM in experiment [7]; 0.01 to 0.1 µM in experiment [8]. The IC50 lay within 0.01 to 0.1 µM in [9]; 0.001 to 0.01 µM in [10]; 0.001 to 0.01 µM in [11]; 0.001 to 0.01 µM in experiment [12]; 0.001 to 0.01 µM in experiment [13].

With `CC[C@@]1(O)C(=O)OCc2c1cc1n(c2=O)Cc2c-1nc1cc3c(cc1c2CN(CCO)CCO)OCO3` [Compound 5p], the IC50 in experiment [3] was in the range of 0.01 to 0.1 µM; in experiment [4], 0.01 to 0.1 µM; in [5], 0.1 to 1 µM; in experiment [6] it was 0.01 to 0.1 µM; in experiment [7], 0.1 to 1 µM; in [8] it was 0.01 to 0.1 µM. Also, the IC50 lay in the range of 0.001 to 0.01 µM in experiment [9]; 0.01 to 0.1 µM in experiment [10]; 0.001 to 0.01 µM in experiment [11]; 0.01 to 0.1 µM in experiment [12]; 0.01 to 0.1 µM in [13].

On to `CC[C@@]1(O)C(=O)OCc2c1cc1n(c2=O)Cc2c-1nc1cc3c(cc1c2CNCc1ccccc1)OCO3` [Compound 5j], for which the IC50 in experiment [3] fell in the range of 0.001 to 0.01 µM; in experiment [4], 0.001 to 0.01 µM; in [5], 0.001 to 0.01 µM; in experiment [6] it was 0.001 to 0.01 µM; in experiment [7], 0.01 to 0.1 µM; in experiment [8], 0.001 to 0.01 µM. The IC50 in experiment [9], in experiment [10], in experiment [11], in experiment [12] and in experiment [13] was 0.001 to 0.01 µM each time.

On to `CC[C@@]1(O)C(=O)OCc2c1cc1n(c2=O)Cc2c-1nc1cc3c(cc1c2CNCCc1ccccc1)OCO3` [Compound 5z], for which the IC50 in [3] was 0.01 to 0.1 µM; in experiment [4] it was 0.001 to 0.01 µM; in experiment [5], 0.01 to 0.1 µM; in [6], 0.01 to 0.1 µM; in experiment [7] it was 0.01 to 0.1 µM; in experiment [8] it was 0.001 to 0.01 µM. In addition, the IC50 lay within 0.001 to 0.01 µM in experiment [9]; 0.01 to 0.1 µM in experiment [10]; 0.001 to 0.01 µM in experiment [11]; 0.001 to 0.01 µM in experiment [12]; 0.01 to 0.1 µM in [13].

Turning to `CC[C@@]1(O)C(=O)OCc2c1cc1n(c2=O)Cc2c-1nc1cc3c(cc1c2CN1CCOCC1)OCO3` [Compound 5g], the IC50 in experiment [3], in [4], in experiment [5], in experiment [6], in experiment [7] and in experiment [8] was 0.001 to 0.01 µM in each case. The IC50 in experiment [9] lay in the range of 0.0001 to 0.001 µM; in experiment [10], 0.001 to 0.01 µM; in [11], 0.001 to 0.01 µM; in experiment [12], 0.001 to 0.01 µM; in [13], 0.001 to 0.01 µM.

`CC[C@@]1(O)C(=O)OCc2c1cc1n(c2=O)Cc2c-1nc1cc3c(cc1c2CNCC1CCNCC1)OCO3` [Compound 5u]: the IC50 was in the range of 0.01 to 0.1 µM in experiment [3]; 0.01 to 0.1 µM in experiment [4]; 0.1 to 1 µM in experiment [5]; 0.01 to 0.1 µM in [6]; 0.1 to 1 µM in experiment [7]; 0.01 to 0.1 µM in experiment [8]. The IC50 in experiment [9] is 0.001 to 0.01 µM; in experiment [10], 0.01 to 0.1 µM; in experiment [11], 0.01 to 0.1 µM; in [12], 0.01 to 0.1 µM; in [13], 0.01 to 0.1 µM.

As to `CC[C@@]1(O)C(=O)OCc2c1cc1n(c2=O)Cc2c-1nc1cc3c(cc1c2CNC12CC4CC(CC(C4)C1)C2)OCO3` [Compound 5s], the IC50 in experiment [3] was in the range of 0.01 to 0.1 µM; in [4], 0.01 to 0.1 µM; in experiment [5], 0.01 to 0.1 µM; in [6], 0.01 to 0.1 µM; in experiment [7], 0.1 to 1 µM; in experiment [8], 0.01 to 0.1 µM. Further, the IC50 in experiment [9], in experiment [10], in [11], in [12] and in experiment [13] was 0.01 to 0.1 µM throughout.

(Values after patent US20190343828A1, “CAMPTOTHECIN PEPTIDE CONJUGATES” (SEATTLE GENETICS, INC., priority 2018, published 2019).)
